Reference: ChEMBL document CHEMBL1132399, “Synthesis of novel orthoalkylaminophenol derivatives as potent neuroprotective agents in vitro” (Bioorg Med Chem Lett, 1999)

Assays:
HT-22 [1] = test: Tested in vitro for neurotoxicity on murine HT-22 hippocampal cell culture, monitored by LDH assay.; type: functional; details: Mus musculus, read-out: TC50 (the source's name)
HT-22 [2] = test: Tested in vitro for neurotoxicity on murine HT-22 hippocampal cell culture, monitored by MTT reduction assay; type: functional; details: Mus musculus, read-out: TC50 (the source's name)
HT-22 [3] = test: Maximum tolerated concentration required for neurotoxicity on murine HT-22 hippocampal cell culture, monitored by LDH assay tested in vitro; type: functional, Mus musculus
HT-22 [4] = test: Maximum tolerated concentration required for neurotoxicity on murine HT-22 hippocampal cell culture, monitored by MTT reduction assay tested in vitro; type: functional, Mus musculus
HT-22 [5] = test: Compound was tested in vitro for its neuroprotective activity against L-homocysteic acid(L-HCA) cytotoxicity in murine HT-22 hippocampal cell culture monitored by MTT reduction assay; type: functional, Mus musculus
HT-22 [6] = test: Tested in vitro for its neuroprotective activity against L-homocysteic acid(L-HCA) cytotoxicity, in murine HT-22 hippocampal cell culture, monitored by LDH assay.; type: functional, Mus musculus
[7] = Safety index (MTC/PC50); type: toxicity; details: read-out: Safety index
HT-22 [8] = test: Tested in vitro for its neuroprotective activity against L-homocysteic acid(L-HCA) cytotoxicity, in murine HT-22 hippocampal cell culture, monitored by MTT reduction assay; type: functional, Mus musculus

Row | SMILES | CC50 (HT-22 [1]) [µM] | CC50 (HT-22 [2]) [µM] | MTC (HT-22 [3]) [µM] | MTC (HT-22 [4]) [µM] | PC50 (HT-22 [5]) [µM] | PC50 (HT-22 [6]) [µM] | selectivity ratio [7] | PC50 (HT-22 [8]) [µM]
1 | Cc1c(C)c2c(c(C)c1O)CC[C@@](C)(CCC[C@H](C)CCC[C@H](C)CCCC(C)C)O2 [ALPHA-TOCOPHEROL] | > 200 | > 200 | >200 | >200 | 0.8 | 1.7 | > 250 | 
2 | O=C(c1cc(O)c(O)c(O)c1)c1ccc(O)c(O)c1O [EXIFONE] | 91 | 34 | 50 | 10 |  | >10 |  | >10
